Laboratory results as given in publication PMC10731318, “Heterologously expressed SacP23, a novel bacteriocin from Paenibacillus polymyxa #23, is active against methicillin resistant Staphylococcus aureus” (Royal Society Open Science, 2023).

Tests used:
[1] = system: Gram-negative and Gram-positive pathogens including antibiotic-resistant strains of E. coli, P. aeruginosa, Acinetobacter baumannii, K. pneumoniae, S. aureus …; conditions: cited from earlier work
[2] = system: Gram-positive and Gram-negative bacteria; conditions: cited from earlier work
Description: Further studies need to be undertaken to fully assess the potency of the SacP23 by performing minimum inhibitory concentration tests for a range of sensitive bacteria. […] This indicates the diversity in antimicrobial spectra of sactipeptide-type ...

[3] = system: many phytopathogens and Gram-positive bacteria; conditions: cited from earlier work
[4] = system: many Gram-negative bacteria including colistin-resistant Klebsiella pneumonia, E. coli, and Campylobacter species; conditions: cited from earlier work
[5] = system: Pseudomonas aeruginosa and K. pneumonia; conditions: cited from earlier work
lipase = lipase 1 mg ml^−1, 1 h; spot-on-lawn versus untreated sample
[6] = system: L. monocytogenes192/1-2 ACM 3173; assay type: cell-based, Listeria monocytogenes; conditions: purified SacP23; L. monocytogenes 192/1-2 ACM 3173; medium MHA
E. coli ATCC 25922 = assay type: cell-based; conditions: purified SacP23, medium MHA
B. cereus ATCC 10876 = assay type: cell-based, Bacillus cereus; conditions: purified SacP23, medium MHA
E. faecalis (VRE) 345/19 = assay type: cell-based, Enterococcus faecalis; conditions: purified SacP23, medium MRS
[7] = system: S. Enteritidis ATCC 13076; assay type: cell-based, Salmonella Enteritidis; conditions: purified SacP23, medium MHA
S. aureus MRSA 344/2-24 = assay type: cell-based, Staphylococcus aureus
trypsin = trypsin 1 mg ml^−1, 1 h; spot-on-lawn versus untreated sample
S. aureus ATCC 25923 = assay type: cell-based, Staphylococcus aureus; conditions: purified SacP23, medium MHA, clear zone, 30°C 12–18 h
catalase = catalase 1 mg ml^−1, 1 h; spot-on-lawn versus untreated sample
L. plantarum A6 = assay type: cell-based, Lactobacillus plantarum; conditions: purified SacP23, medium deMan, Rogosa and Sharpe (MRS)
C. jejuni ATCC 81116 = assay type: cell-based, Campylobacter jejuni; conditions: purified SacP23, medium MHA + 5% sheep blood
B. subtilis BS34A = assay type: cell-based, Bacillus subtilis
pronase E = pronase E 1 mg ml^−1, 1 h; spot-on-lawn versus untreated sample
proteinase K = proteinase K (Parengyodontium album, UniProt P06873); conditions: proteinase K 1 mg ml^−1, 1 h; spot-on-lawn versus untreated sample
proteinase K, sequence (P06873 106-384): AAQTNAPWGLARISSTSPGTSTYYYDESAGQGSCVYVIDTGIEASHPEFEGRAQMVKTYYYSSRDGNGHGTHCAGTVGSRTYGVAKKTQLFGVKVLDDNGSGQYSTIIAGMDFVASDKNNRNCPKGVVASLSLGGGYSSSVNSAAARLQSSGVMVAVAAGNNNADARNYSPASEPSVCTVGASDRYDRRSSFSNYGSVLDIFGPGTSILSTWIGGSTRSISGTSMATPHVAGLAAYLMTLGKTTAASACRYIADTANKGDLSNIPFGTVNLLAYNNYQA

C. perfringens EHE-NE18 = assay type: cell-based, Clostridium perfringens; conditions: purified SacP23, medium MHA
[8] = isolated from a Cyanobacteria sp.; cited from earlier work

Q: For paenibacterin, which antimicrobial activity [1] is on record?
A: The antimicrobial activity was “antimicrobial activity”.

Q: With “subtilosin A (cyclo(NKGCATCSIGAACLVDGPIPDFEIAGATGLFGLWG); ends not checked; also: sactipeptide thioether linkages between Cys and alpha-carbons, positions not given here; UniProt O07623 9-43, looked up)” as the substance, how does the antimicrobial spectrum [2] read?
A: The antimicrobial spectrum was “antimicrobial activity extending to both Gram-positive and Gram-negative bacteria”.

Q: Which inhibitory activity [3] does the source give for fusaricidin B here?
A: The inhibitory activity was “inhibitory activity”.

Q: For Tridecaptin, which “activity against Gram-negative bacteria” value [4] is on record?
A: Its value is “strong activity”.

Q: Which growth suppression [5] does the source give for Polymyxin here?
A: The growth suppression was “suppress the growth”.

Q: Which results are given for “MRKLVKRSTNVGDTIEAFGCGCSCYCPCSCYCAGSLTRSSNTSRESDGSYRRDNGTGIGN [SacP23, novel sactipeptide bacteriocin from Paenibacillus polymyxa #23, heterologously expressed in B. subtilis BS34A and purified; mature structure not elucidated]”?
A: enzymatic stability: remaining antimicrobial activity after lipase (lipase): resistant; antimicrobial activity [6]: −; antimicrobial activity (E. coli ATCC 25922): −; antimicrobial activity (B. cereus ATCC 10876): +; antimicrobial activity (E. faecalis (VRE) 345/19): +; antimicrobial activity [7]: −; antimicrobial activity against an MRSA isolate (S. aureus MRSA 344/2-24; heterologously expressed recombinant SacP23, result in words): strong activity; antimicrobial activity (S. aureus MRSA 344/2-24; purified SacP23, S. aureus MRSA 344/2-24, medium MHA, clear zone, 30°C 12–18 h): +; enzymatic stability: remaining antimicrobial activity after trypsin (trypsin): sensitive; antimicrobial activity (S. aureus ATCC 25923): +; enzymatic stability: remaining antimicrobial activity after catalase (catalase): resistant; antimicrobial activity (L. plantarum A6): −; antimicrobial activity (C. jejuni ATCC 81116): −; antimicrobial activity (B. subtilis BS34A; purified SacP23, B. subtilis BS34A, medium MHA): +; sensitivity of the base B. subtilis expression strain (B. subtilis BS34A; recombinant SacP23, result in words): sensitive; enzymatic stability: remaining antimicrobial activity after pronase E (pronase E): sensitive; enzymatic stability: remaining antimicrobial activity after proteinase K (proteinase K): sensitive; antimicrobial activity (C. perfringens EHE-NE18): −

Q: Which antiviral activity [8] does the source give for landornamide A here?
A: Its antiviral activity is “antiviral activity”.
